In patent US20260055126A1, “SMALL MOLECULE COMPOUNDS WITH PHOSPHORYLATED ARYL STRUCTURES AND USE THEREOF” (HANGZHOU PHECDAMED CO., LTD., priority 2022, published 2026):
Values joined by “and” are separate entries in the source; they are usually repeats but may differ in a detail not shown here. Equal values may be shown once. Read-outs that look alike come from different tables or passages of the source.

Experiments:
[1] = test system: recombinant TEAD1 protein (194-411, Uniprot ID: P28347); experiment: Thermal shift assay (protein melting point curve), TEAD1; assay type: binding; parameters: key to the marks not given beside the values; settings: 10 μM TEAD protein, 50 μM test compound
Description: (§1) The ability of the compounds to increase the melting point of purified recombinant TEAD1/2/3/4 proteins is tested using a thermal shift assay. The strength of the compound's binding to the protein and the selectivity of the compound's binding to the four TEAD subtypes are evaluated by calculating the melting point shift ΔTm−° C. […] Based on the Δ Tm value, the ability of the compound to bind to the TEAD protein is divided into four levels: ++++, +++, ++, +.
(§2) Test method of protein melting point curve: 10 μL of the protein melting point curve experimental system (10 μM TEAD protein, 50 μM test compound, SYPRO® orange (55692, sigma)) is prepared in a 384-well fluorescence quantitative PCR plate according to the following system, and reacted at 4° C. in the dark for 20 minutes. On-machine reaction: ABI QuantStudio Dx fluorescence quantitative PCR instrument; program: from 25° C. to 80° C., increasing the temperature at a rate of 0.05° C./s, and reading the fluorescence channel signal of the corresponding wavelength of SYPRO® orange every second.

[2] = molecular target: recombinant TEAD2 protein (218-447, Uniprot ID: Q15562) (Homo sapiens (Human), UniProt Q15562); experiment: Thermal shift assay (protein melting point curve), TEAD2; assay type: binding; settings: 10 μM TEAD protein, 50 μM test compound
recombinant TEAD2 protein (218-447, Uniprot ID: Q15562), sequence (Q15562 218-447): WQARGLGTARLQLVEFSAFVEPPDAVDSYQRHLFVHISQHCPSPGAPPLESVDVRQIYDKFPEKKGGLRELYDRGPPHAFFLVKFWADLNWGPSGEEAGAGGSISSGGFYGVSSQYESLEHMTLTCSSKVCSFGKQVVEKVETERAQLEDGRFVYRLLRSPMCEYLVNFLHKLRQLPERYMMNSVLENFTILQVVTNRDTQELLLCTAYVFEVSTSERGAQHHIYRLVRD
Description: as §1, §2

[3] = molecular target: recombinant TEAD3 protein (218-435, Uniprot ID: Q99594) (Homo sapiens (Human), UniProt Q99594); experiment: Thermal shift assay (protein melting point curve), TEAD3; assay type: binding; settings: 10 μM TEAD protein, 50 μM test compound
recombinant TEAD3 protein (218-435, Uniprot ID: Q99594), sequence (Q99594 218-435): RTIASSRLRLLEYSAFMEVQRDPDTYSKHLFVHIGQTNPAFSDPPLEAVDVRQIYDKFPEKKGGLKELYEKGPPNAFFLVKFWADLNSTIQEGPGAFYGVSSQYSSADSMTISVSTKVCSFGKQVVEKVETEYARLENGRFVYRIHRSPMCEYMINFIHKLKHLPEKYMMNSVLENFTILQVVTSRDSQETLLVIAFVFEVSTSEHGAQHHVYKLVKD
Description: as §1, §2

[4] = molecular target: recombinant TEAD4 protein (217-434, Uniprot ID: Q15561) (Homo sapiens (Human), UniProt Q15561); experiment: Thermal shift assay (protein melting point curve), TEAD4; assay type: binding; settings: 10 μM TEAD protein, 50 μM test compound
recombinant TEAD4 protein (217-434, Uniprot ID: Q15561), sequence (Q15561 217-434): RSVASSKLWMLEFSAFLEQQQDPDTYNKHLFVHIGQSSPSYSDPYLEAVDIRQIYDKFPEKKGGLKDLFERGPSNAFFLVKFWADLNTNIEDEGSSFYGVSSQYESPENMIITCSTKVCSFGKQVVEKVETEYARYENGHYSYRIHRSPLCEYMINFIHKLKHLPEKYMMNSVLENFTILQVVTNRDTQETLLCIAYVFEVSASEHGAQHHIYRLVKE
Description: as §1, §2

[5] = molecular target: recombinant TEAD1 protein central pocket (Homo sapiens (Human), UniProt P28347); experiment: Competitive thiol binding assay (CPM assay), TEAD1; settings: 150 nM recombinant TEAD protein, 150 nM CPM
recombinant TEAD1 protein central pocket, sequence (P28347 whole entry): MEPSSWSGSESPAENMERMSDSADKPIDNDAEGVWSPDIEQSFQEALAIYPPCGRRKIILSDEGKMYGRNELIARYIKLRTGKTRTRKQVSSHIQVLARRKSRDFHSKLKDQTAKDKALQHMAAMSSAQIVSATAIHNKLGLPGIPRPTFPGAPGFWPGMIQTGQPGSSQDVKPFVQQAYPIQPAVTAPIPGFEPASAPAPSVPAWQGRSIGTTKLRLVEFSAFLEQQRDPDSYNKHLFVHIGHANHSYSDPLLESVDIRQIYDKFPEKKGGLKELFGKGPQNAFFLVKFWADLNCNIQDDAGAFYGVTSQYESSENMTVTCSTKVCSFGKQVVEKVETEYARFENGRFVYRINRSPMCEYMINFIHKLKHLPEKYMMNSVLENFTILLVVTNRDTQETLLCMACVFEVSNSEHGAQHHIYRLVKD
Description: (§3) Diluting the tested compound in gradient to 5 uL with buffer (25 mM HEPES, 150 mM NaCl, pH6.5), then adding 5 μL of the newly prepared 0.45 uM recombinant TEAD protein solution, and incubating at room temperature for 10 minutes. […] After shaking the plate at room temperature for 1 hour, measuring the fluorescence intensity (Ex/Em: 380/470 nm).

[6] = molecular target: recombinant TEAD4 protein central pocket (Homo sapiens (Human), UniProt Q15561); experiment: Competitive thiol binding assay (CPM assay), TEAD4; settings: 150 nM recombinant TEAD protein, 150 nM CPM
recombinant TEAD4 protein central pocket, sequence (Q15561 whole entry): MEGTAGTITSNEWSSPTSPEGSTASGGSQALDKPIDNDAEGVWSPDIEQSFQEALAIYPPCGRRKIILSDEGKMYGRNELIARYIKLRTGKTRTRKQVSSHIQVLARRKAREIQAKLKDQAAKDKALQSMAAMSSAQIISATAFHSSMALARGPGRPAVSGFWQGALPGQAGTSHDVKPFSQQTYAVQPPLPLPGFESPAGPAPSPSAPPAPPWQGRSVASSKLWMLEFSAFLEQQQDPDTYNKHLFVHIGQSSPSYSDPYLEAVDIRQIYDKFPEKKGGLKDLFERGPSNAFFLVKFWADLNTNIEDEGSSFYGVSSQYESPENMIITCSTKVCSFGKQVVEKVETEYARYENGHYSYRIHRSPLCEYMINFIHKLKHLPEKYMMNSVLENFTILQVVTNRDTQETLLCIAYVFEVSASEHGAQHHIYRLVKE
Description: as §3

[7] = Permeability test on Caco2 cells; assay type: in vitro ADME; settings: human, Caco-2, AP→BL
Description: (§4) After resuscitation, the Caco-2 cells are transferred to a conventional culture dish and cultured in a high-glucose DMEM medium (containing 10% FBS) at 37° C. and 5% CO2 in an incubator. When the cells cover 80% to 95% of the bottom of the dish, they are digested with trypsin containing 0.25% EDTA to disperse them into a single cell suspension, and the cell concentration is determined using a cell counter, after that, the concentration of the cell suspension is adjusted to 2 to 2.5×10^5/mL with fresh culture medium and inoculated into a Transwell polycarbonate membrane 12-well plate, the fresh culture medium is replaced every two days in the first two weeks and once a day in the last week, the culture is continued for 19 to 21 days to obtain a fully differentiated single cell layer.

Caco-2 cells = experiment: Permeability test on Caco2 cells; assay type: in vitro ADME; settings: for Papp / Receiving chamber concentration Area ratio/OD: single replicate; for Penetration Type: Caco2 cell model
Description: as §4

[8] = single replicate, read-out: Papp

Structure (SMILES)	Δ T m (TEAD2) [2]	Δ T m (TEAD3) [3]	Δ T m (TEAD4) [4]	IC50 [5]	IC50 [6]	Papp at 120 min [7, 8]	Papp (Caco-2 cells; AP→BL)	Penetration Type (Caco-2 cells)	Papp at 120 min ([7]; n = 2, read-out: Papp average value)	Receiving chamber concentration Area ratio/OD (Caco-2 cells; AP→BL)	Papp average value (Caco-2 cells; AP→BL, n = 2)	Δ T m (TEAD1) [1]
CP(C)(=O)c1ccc(Nc2cccc(OC(F)(F)F)c2)c(-c2nccc(OC3COC3)n2)c1 [Compound 67]	++	+	+++	–	–	–	–	–	–	–	–	+++
Cc1nnc(-c2cc(P(C)(C)=O)ccc2Nc2ccc(C(F)(F)F)cc2)o1 [Compound 69]	+	++	++	–	–	–	–	–	–	–	–	++
CP(C)(=O)c1ccc(Nc2ccc(C(F)(F)F)cc2)c(-c2cn(C3COC3)cn2)c1 [Compound 70]	++	+	++	–	–	–	–	–	–	–	–	++
CP(C)(=O)c1ccc(Nc2ccc(C(F)(F)F)cc2)c(-c2csc(OC3COC3)n2)c1 [Compound 71]	+	+	++	–	–	–	–	–	–	–	–	++

More lines, main results first:

Δ T m (TEAD2) [2]	Δ T m (TEAD3) [3]	Δ T m (TEAD4) [4]	IC50 [5]	IC50 [6]	Papp at 120 min [7, 8]	Papp (Caco-2 cells; AP→BL)	Penetration Type (Caco-2 cells)	Papp at 120 min ([7]; n = 2, read-out: Papp average value)	Receiving chamber concentration Area ratio/OD (Caco-2 cells; AP→BL)	Papp average value (Caco-2 cells; AP→BL, n = 2)	Structure (SMILES)	Δ T m (TEAD1) [1]
+	+	++++	190 nM	210 nM	–	–	–	–	–	–	CP(C)(=O)c1ccc(Nc2ccc(S(F)(F)(F)(F)F)cc2)c(-c2nccc(OC3COC3)n2)c1 [Compound 74]	++++
–	–	–	–	–	17.8 ×10⁻⁶ cm/s	18.4 10^−6 cm/s	High	–	–	–	COCCc1ccc(OCC(O)CNC(C)C)cc1 (stereo not shown) [Metoprolol]	–
–	–	–	–	–	0.364 ×10⁻⁶ cm/s	0.334 10^−6 cm/s	Zero	0.349 ×10⁻⁶ cm/s	4.40E+07 and 4.05E+07	–	O=C1OC2(c3ccc(O)cc3Oc3cc(O)ccc32)c2ccccc21 [fluorescein]	–
–	–	–	–	–	–	1.99 10^−6 cm/s and 1.69 10^−6 cm/s	Medium	–	3.32 and 2.82	1.84 10^−6 cm/s	CNC(=C[N+](=O)[O-])NCCSCc1ccc(CN(C)C)o1 [ranitidine]	–
